According to patent publication US20070148710A1, “Cpt resistant cell line” (priority 2003, published 2007):
Values after ≈ are worked out from the molar mass of the structure shown. Read-outs that look alike come from different tables or passages of the source.

What was measured:
SW948CPTH = test: cell proliferation assay, cross-resistance to topoisomerase I and II inhibitors; type: cell-based, human
Excerpt: (§1) Drug resistance to other topoisomerase I and II inhibitors was examined by determining the IC50 dose of each drug using a cell proliferation assay as shown in Table 3.

SW948 = test: as above; type: cell-based, human; settings: Homo sapiens; SW948 parental; mean ± SD, 2-4 independent assays; read-out: Sensitivity expressed as IC50
Excerpt: as §1

[1] = system: SW948 human colon cancer xenografts; test: tumor xenograft growth; type: in vivo, Balb/c athymic nude mice; settings: initial study: Erbitux 1 mg i.p. every 3 days, CPT-11 40 mg/kg i.v. every 6 days, 3 Gy radiation (FIG. 11); n=7
Procedure: 15. […] Erbitux® (1 mg) was administered i.p. every 3 days for 5 weeks beginning on day 22 after tumor cell injection. […] Mean change in tumor size relative to size on day 22 (n=7 mice/group) is shown. At the time of Erbitux® administration (day 22), the mean±SD size of the tumors were 71.8±39.8 mm^2.
16. […] Erbitux® (1 mg) was administered i.p. 2 times a week for 3 weeks (days 24, 27, 31, 34, 38, and 41) beginning on day 24 after tumor cell injection. […] Mean change in tumor size relative to size on day 24 (n=7 mice/group). At the time of Erbitux® administration (day 24), the mean±SD size of the tumors were 58.0±29.3 mm^2.
91. Additional studies against SW948 colon cancer cells have been carried out in vitro and with SW948 tumor xenografts. […] FIG. 10 illustrates the induction of apoptosis in SW948 cells in vitro following treatment with these agents. […] This experiment was run concurrently with a third experiment in which SW948CPTH cells were used in the xenograft (FIG. 13).
92. Balb/c athymic nude mice were injected subcutaneously with 2×10^7 SW948 or SW948CPTH cells. […] Change in average tumor size measured with calipers (surface area equal to product of two largest diameters) for each group relative to the size on day 24 was determined. […] Change in average tumor size relative to day 22 was monitored as described above for SW948 tumors.

SW948 cells [2] = test: clonogenic cell survival assay, CPT-11 IC50; type: cell-based; settings: Homo sapiens
Procedure: 81. […] Cells were then washed with PBS and cultured in fresh medium without CPT-11 and a colony formation assay initiated. Ten days later, the surviving fraction of the SW948 and SW948CPTH cells was determined.
82. […] This level of sensitivity was similar to that reported for other cell lines (Kanzawa et al. Cancer Res 50:5919-5924, 1990; Kojima et al. Cancer Res 58:4368-4374, 1998; and Kojima et al. J Clin Invest 101:1789-1796, 1998).

SW948CPTH cells [3] = test: cell cycle analysis; type: cell-based, human
SW948CPTL cells [4] = test: cell cycle analysis; type: cell-based, human
SW948 cells [5] = test: cell cycle analysis; type: cell-based, human
SW948CPTL cells [6] = test: clonogenic assay, CPT-11 IC50; type: cell-based; settings: Homo sapiens, read-out: CPT-11 IC50
Procedure: 8. […] IC50 was determined using a clonogenic assay.

SW948CPTH cells [7] = test: clonogenic assay, CPT-11 IC50; type: cell-based; settings: Homo sapiens
Procedure: 7. […] IC50 was determined using a clonogenic assay.
Ten days later, the surviving fraction of the SW948 and SW948CPTH cells was determined.
The cells were then washed, fresh medium added, and plated for colony formation.

[8] = system: SW948 colon carcinoma cells; test: induction of early apoptosis (annexin V-FITC / propidium iodide, FACS); type: cell-based, human; settings: SW948 in vitro, 4 days post-treatment (FIG. 10)
Excerpt: 14. […] Floating and adherent cells were collected 4 days post-treatment. The treatments are described in the legend for FIG. 8. The cells were stained with annexin V-FITC and propidium iodide, then analyzed by FACS using CellQuest software (Beckton-Dickenson, San Diego, Calif.). Data points are the average±SEM of a representative experiment done in triplicate.

[9] = SW948 parent cell line, dose dependent

CCc1c2c(nc3ccc(OC(=O)N4CCC(N5CCCCC5)CC4)cc13)-c1cc3c(c(=O)n1C2)COC(=O)[C@]3(O)CC [CPT-11, Irinotecan]
IC50 (SW948CPTH; Homo sapiens, read-out: Sensitivity expressed as IC50): 43.7 ± 8.6 µg/mL (≈ 74.5 µM)
change in resistance of SW948CPTH cells compared to the parental cell line SW948 (SW948CPTH; IC50 by cell proliferation assay (Table 3)): increased resistance
IC50 (SW948): 3 ± 0.4 µg/mL (≈ 5.11 µM)
complete regressions [1]: 0/7
IC50 (SW948 cells [2]; SW948, read-out: CPT-11 IC50 concentration (colony formation)): 2.8 µg/mL (≈ 4.77 µM)
IC50 (SW948 cells [2]; read-out: CPT-11 IC50 of untreated SW948 cells, untreated SW948, mean value): 2.1 ± 0.3 µg/mL (≈ 3.58 µM)
G0-G1(%) (SW948CPTH cells [3]; CPT-11 1 μg/ml): 45.7 ± 6.2%
G2-M(%) (SW948CPTH cells [3]; CPT-11 1 μg/ml): 8.3 ± 3.1%
S(%) (SW948CPTH cells [3]; CPT-11 1 μg/ml): 46 ± 7.5%
G0-G1(%) (SW948CPTH cells [3]; CPT-11 2 μg/ml): 44.6 ± 3.8%
G2-M(%) (SW948CPTH cells [3]; CPT-11 2 μg/ml): 8.9 ± 1.9%
S(%) (SW948CPTH cells [3]; CPT-11 2 μg/ml): 46.5 ± 3.9%
G0-G1(%) (SW948CPTH cells [3]; CPT-11 5 μg/ml): 45.0 ± 3.0%
G2-M(%) (SW948CPTH cells [3]; CPT-11 5 μg/ml): 12.2 ± 2.3%
S(%) (SW948CPTH cells [3]; CPT-11 5 μg/ml): 42.8 ± 4.9%
change of cell cycle (SW948CPTH cells [3]; similar amount of CPT-11): did not cause any change
G0-G1(%) (SW948CPTL cells [4]; CPT-11 1 μg/ml): 50.0 ± 1.7%
G2-M(%) (SW948CPTL cells [4]; CPT-11 1 μg/ml): 10.0 ± 1.4%
S(%) (SW948CPTL cells [4]; CPT-11 1 μg/ml): 40.3 ± 2.4%
G2-M(%) (SW948CPTL cells [4]; CPT-11 2 μg/ml): 11.2 ± 2.6%
S(%) (SW948CPTL cells [4]; CPT-11 2 μg/ml): 43.1 ± 6.5%
G2-M(%) (SW948CPTL cells [4]; CPT-11 5 μg/ml): 13.9 ± 2.2%
S(%) (SW948CPTL cells [4]; CPT-11 5 μg/ml): 40.8 ± 6.4%
change of cell cycle (SW948CPTL cells [4]; similar amount of CPT-11): did not cause any change
G0-G1(%) (SW948 cells [5]; SW948, CPT-11 1 μg/ml): 36.0 ± 3.2%
S(%) (SW948 cells [5]; SW948, CPT-11 1 μg/ml): 39.6 ± 3.8%
G0-G1(%) (SW948 cells [5]; SW948, CPT-11 2 μg/ml): 22.1 ± 2.0%
G2-M(%) (SW948 cells [5]; SW948, CPT-11 2 μg/ml): 35.8 ± 5.1%
S(%) (SW948 cells [5]; SW948, CPT-11 2 μg/ml): 42.1 ± 6.7%
G0-G1(%) (SW948 cells [5]; SW948, CPT-11 5 μg/ml): 17.0 ± 1.9%
G2-M(%) (SW948 cells [5]; SW948, CPT-11 5 μg/ml): 41.0 ± 2.5%
S(%) (SW948 cells [5]; SW948, CPT-11 5 μg/ml): 42 ± 2.5%
change of S phase (SW948 cells [5]; SW948 parent cell line): No obvious changes
change of percentage of cells in the G0-G1 phase (SW948 cells [5]; [9]): decreased
change of percentage of cells in the G2-M phase (SW948 cells [5]; [9]): increased
IC50 (SW948CPTL cells [6]; 168 h): 4.8 µg/mL (≈ 8.18 µM)
IC50 (SW948CPTL cells [6]; 600 h): 12.9 µg/mL (≈ 22 µM)
IC50 (SW948CPTL cells [6]): 16 µg/mL (≈ 27.3 µM)
IC50 (SW948CPTH cells [7]; 192 h, read-out: CPT-11 IC50, SW948CPTH exposed to 80 μg/ml CPT-11, 8 days when assayed, tested in presence of CPT-11): 79 µg/mL
IC50 (SW948CPTH cells [7]; 336 h, read-out: CPT-11 IC50, SW948CPTH exposed to 8 μg/ml CPT-11, 14 days when assayed, tested in presence of CPT-11): 18.2 µg/mL
IC50 (SW948CPTH cells [7]; 480 h, read-out: CPT-11 IC50, SW948CPTH exposed to 8 μg/ml CPT-11, 20 days when assayed, tested in presence of CPT-11): 15.6 µg/mL
IC50 (SW948CPTH cells [7]; 480 h, read-out: CPT-11 IC50, SW948CPTH exposed to 30 μg/ml CPT-11, 20 days when assayed, tested in presence of CPT-11): 18 µg/mL
IC50 (SW948CPTH cells [7]; 552 h, read-out: CPT-11 IC50, SW948CPTH exposed to 10 μg/ml CPT-11, 23 days when assayed, tested in presence of CPT-11): 21.3 µg/mL
IC50 (SW948CPTH cells [7]; 600 h, read-out: CPT-11 IC50, SW948CPTH exposed to 20 μg/ml CPT-11, 25 days when assayed, tested in presence of CPT-11): 23.6 µg/mL
IC50 (SW948CPTH cells [7]; […], read-out: CPT-11 IC50, SW948CPTH exposed to 30 μg/ml CPT-11, 19 days when assayed, tested in presence of CPT-11): 21.3 µg/mL
IC50 (SW948CPTH cells [7]; read-out: CPT-11 IC50, SW948CPTH exposed to 20 μg/ml CPT-11, 30 days when assayed, tested in presence of CPT-11): 18.2 µg/mL
IC50 (SW948CPTH cells [7]; read-out: CPT-11 IC50, SW948CPTH exposed to 20 μg/ml CPT-11, 51 days when assayed, tested in presence of CPT-11): 24 µg/mL
IC50 (SW948CPTH cells [7]; read-out: CPT-11 IC50, SW948CPTH exposed to 20 μg/ml CPT-11, 60 days, CPT-11 withdrawn for 33 days prior to IC50 determination): 19 µg/mL (≈ 32.4 µM)
IC50 (SW948CPTH cells [7]; read-out: CPT-11 IC50, SW948CPTH exposed to 20 μg/ml CPT-11, 65 days when assayed, tested in presence of CPT-11): 34 µg/mL
IC50 (SW948CPTH cells [7]; read-out: CPT-11 IC50, SW948CPTH exposed to 30 μg/ml CPT-11, 47 days when assayed, tested in presence of CPT-11): 19 µg/mL
IC50 (SW948CPTH cells [7]; read-out: CPT-11 IC50, SW948CPTH exposed to 40 μg/ml CPT-11, 30 days when assayed, tested in presence of CPT-11): 55 µg/mL
IC50 (SW948CPTH cells [7]; read-out: CPT-11 IC50 Dose, SW948CPTH treated 20 μg/ml CPT-11 62 days, 5 days after removal of CPT-11): 25 µg/mL (≈ 42.6 µM)
IC50 (SW948CPTH cells [7]; read-out: CPT-11 IC50 Dose, SW948CPTH treated 20 μg/ml CPT-11 62 days, 21 days after removal of CPT-11): 18.9 µg/mL (≈ 32.2 µM)
IC50 (SW948CPTH cells [7]; read-out: CPT-11 IC50 Dose, SW948CPTH treated 20 μg/ml CPT-11 62 days, 40 days after removal of CPT-11): 19 µg/mL (≈ 32.4 µM)
IC50 (SW948CPTH cells [7]; read-out: CPT-11 IC50 Dose, SW948CPTH treated 20 μg/ml CPT-11 62 days, 45 days after removal of CPT-11): 19.2 µg/mL (≈ 32.7 µM)
IC50 (SW948CPTH cells [7]; read-out: CPT-11 IC50 Dose, SW948CPTH treated 20 μg/ml CPT-11 62 days, 68 days after removal of CPT-11): 11.4 µg/mL (≈ 19.4 µM)
IC50 (SW948CPTH cells [7]; read-out: CPT-11 IC50 Dose, SW948CPTH treated 20 μg/ml CPT-11 62 days, 89 days after removal of CPT-11): 13.4 µg/mL (≈ 22.8 µM)
induction of apoptosis [8]: high level of apoptosis
